In ChEMBL document CHEMBL3244201, “Synthesis and specific pressor activity of [1-aspartic acid,5-valine,9-serine]angiotensin I ("fowl angiotensin I")” (1977):

Legend:
Type in all cases: functional
Rattus norvegicus [1] = species on record: Rattus norvegicus; assay: Pressor activity in rat assessed as weight basis relative to mammalian [Ile5]angiotensin 1
Rattus norvegicus [2] = species on record: Rattus norvegicus; assay: Pressor activity in rat assessed as molar basis relative to mammalian [Ile5]angiotensin 1
Rattus norvegicus [3] = species on record: Rattus norvegicus; assay: Pressor activity in ganglion-blocked vagotomized rat assessed as weight basis relative to mammalian [Ile5]angiotensin 2
Rattus norvegicus [4] = species on record: Rattus norvegicus; assay: Pressor activity in rat assessed as weight basis relative to mammalian [Val5]angiotensin 2
Rattus norvegicus [5] = species on record: Rattus norvegicus; assay: Pressor activity in rat assessed as weight basis relative to mammalian [Ile5]angiotensin 2
Rattus norvegicus [6] = species on record: Rattus norvegicus; assay: Pressor activity in rat assessed as molar basis relative to mammalian [Ile5]angiotensin 2
Rattus norvegicus [7] = species on record: Rattus norvegicus; assay: Pressor activity in rat assessed as weight basis relative to mammalian [Val5]angiotensin 1
Rattus norvegicus [8] = species on record: Rattus norvegicus; assay: Pressor activity in rat assessed as molar basis relative to mammalian [Val5]angiotensin 2
Rattus norvegicus [9] = species on record: Rattus norvegicus; assay: Pressor activity in rat assessed as molar basis relative to mammalian [Val5]angiotensin 1

Molecule | Activity (Rattus norvegicus [1]) | Activity (Rattus norvegicus [2]) | Activity (Rattus norvegicus [3]) | Activity (Rattus norvegicus [4]) | Activity (Rattus norvegicus [5]) | Activity (Rattus norvegicus [6]) | Activity (Rattus norvegicus [7]) | Activity (Rattus norvegicus [8]) | Activity (Rattus norvegicus [9])
H-DRVYVHPFSL-OH | 160.4% | 157% | 91.2% | 69.2% | 94.1% | 114.4% | 182.8% | 85.1% | 180.8%
H-DRVYIHPFHL-OH | – | – | – | 43.1% | 58.6% | – | – | – | –
CC[C@H](C)[C@H](NC(=O)[C@H](Cc1ccc(O)cc1)NC(=O)[C@@H](NC(=O)[C@H](CCCNC(=N)N)NC(=O)[C@@H](N)CC(=O)O)C(C)C)C(=O)N[C@@H](Cc1cnc[nH]1)C(=O)N1CCC[C@H]1C(=O)N[C@@H](Cc1ccccc1)C(=O)O [ANGIOTENSIN II] | – | – | – | 73.5% | 100% | – | – | – | –
H-DRVYVHPFHL-OH | – | – | – | 37.8% | 51.5% | – | – | – | –
H-DRVYVHPF-OH [[Val5] - ANGIOTENSIN II] | – | – | – | 100% | 136% | – | – | – | –
